From ChEMBL document CHEMBL1201862, “PubChem BioAssay data set” (2004)
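Each compound was tested at five concentrations against cells in 96-well plates for 48 hours. GI50 marks 50% less growth.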 Active and inactive are the calls of the source. Rule as the data show it: active = GI50 up to about 1.1 µM and inactive = higher. Starred links: 1 amine or outer side, 2 acyl side, 3 side chain; linkers in the order of their positions; H or OH if unused. Non-standard residues stand in square brackets, D forms with d. Residues, ends and D or L forms follow the SMILES beside them. *: point of attachment. X34 = CC(=O)N(C)SCC(N[*:1])C(=O)[*:2]; Cbz = O=C(OCc1ccccc1)*; Bn = c1ccc(C*)cc1; For = O=C*

What was measured:
Test in all cases: NCI-60 cell line screen, 48 h
NCI-H23 = test system: NCI-H23
SK-MEL-5 = test system: SK-MEL-5
PC-3 = test system: PC-3
IGROV-1 = test system: IGROV-1
K562 = test system: K562
EKVX = test system: EKVX
M14 = test system: M14
SR = test system: SR
BT-549 = test system: BT-549
RPMI-8226 = test system: RPMI-8226
MDA-N = test system: MDA-N
U-251 = test system: U-251
Hs-578T = test system: Hs-578T
HT-29 = test system: HT-29
CCRF-CEM = test system: CCRF-CEM
MDA-MB-435 = test system: MDA-MB-435
SK-MEL-2 = test system: SK-MEL-2
ACHN = test system: ACHN
MDA-MB-231 = test system: MDA-MB-231

Measured: GI50

CC(C)C(N)(C(=O)O)c1ccccc1 (stereo not drawn)
inactive: NCI-H23 > 100 µM | SK-MEL-5 > 100 µM | PC-3 > 100 µM | IGROV-1 > 100 µM | K562 > 100 µM | EKVX > 100 µM | M14 > 100 µM | SR > 100 µM | BT-549 > 100 µM | RPMI-8226 > 100 µM | MDA-N > 100 µM | U-251 > 100 µM | Hs-578T > 100 µM | HT-29 > 100 µM | CCRF-CEM > 100 µM | MDA-MB-435 > 100 µM | SK-MEL-2 > 100 µM | ACHN > 100 µM | MDA-MB-231 > 100 µM

N#Cc1c(-c2ccc(Cl)cc2)c2c([nH]c1=O)-c1cc([N+](=O)[O-])ccc1CCC2
inactive: NCI-H23 15.2 µM | SK-MEL-5 16.6 µM | PC-3 29.4 µM | IGROV-1 21 µM | K562 35.4 µM | EKVX 17.1 µM | M14 24.1 µM | SR 28.4 µM | BT-549 15.2 µM | RPMI-8226 86.7 µM | MDA-N 26.7 µM | U-251 17.5 µM | Hs-578T 25.2 µM | HT-29 25.4 µM | CCRF-CEM 25.2 µM | MDA-MB-435 29.9 µM | SK-MEL-2 18 µM | ACHN 25.3 µM | MDA-MB-231 22.4 µM

CC(=O)N(C)SCC(NC(=O)C(Cc1ccccc1)NC(=O)OCc1ccccc1)C(=O)NC(Cc1ccccc1)C(=O)NC(Cc1cn(C=O)c2ccccc12)C(=O)NC(CCCCNC(=O)OCc1ccccc1)C(=O)NC(C(=O)NC(CSN(C)C(C)=O)C(=O)NC(C(N)=O)C(C)OCc1ccccc1)C(C)OCc1ccccc1 (stereo not drawn) (Cbz-F[X34]FW(For)K(Cbz)T(Bn)[X34]T(Bn)-NH2; configuration not given here)
inactive: NCI-H23 32 µM | SK-MEL-5 > 100 µM | PC-3 > 100 µM | IGROV-1 68.9 µM | K562 > 100 µM | EKVX > 100 µM | M14 46.9 µM | SR > 100 µM | BT-549 21.1 µM | RPMI-8226 > 100 µM | MDA-N > 100 µM | U-251 32.2 µM | Hs-578T 8.63 µM | HT-29 > 100 µM | CCRF-CEM > 100 µM | MDA-MB-435 > 100 µM | SK-MEL-2 3.77 µM | ACHN > 100 µM | MDA-MB-231 14.7 µM

COC(=O)c1cc2ccc(OC(C)=O)c(OC(C)=O)c2cn1
inactive: NCI-H23 18 µM | SK-MEL-5 16.1 µM | PC-3 20.7 µM | IGROV-1 18.6 µM | K562 2.72 µM | EKVX 22.6 µM | M14 19 µM | SR 2.65 µM | BT-549 > 10 µM | RPMI-8226 2.16 µM | MDA-N 1.5 µM | U-251 3.64 µM | Hs-578T > 10 µM | HT-29 23.9 µM | CCRF-CEM 2.29 µM | MDA-MB-435 1.73 µM | SK-MEL-2 18.3 µM | ACHN 17.1 µM | MDA-MB-231 4.01 µM

COC(=O)c1ccc(-n2c(C)nc(=O)c(-c3ccccc3)c2C)cc1
inactive: NCI-H23 > 100 µM | SK-MEL-5 > 100 µM | PC-3 > 100 µM | IGROV-1 > 100 µM | K562 > 100 µM | EKVX > 100 µM | M14 > 100 µM | SR > 100 µM | BT-549 > 100 µM | RPMI-8226 > 100 µM | MDA-N > 10 µM | U-251 > 100 µM | Hs-578T > 100 µM | HT-29 > 100 µM | CCRF-CEM > 100 µM | MDA-MB-435 > 100 µM | SK-MEL-2 30.7 µM | ACHN > 100 µM | MDA-MB-231 > 100 µM

Cc1nc2ccccc2n1COC(Cn1ccnc1)c1ccc(Cl)cc1Cl (stereo not drawn)
inactive: NCI-H23 55.8 µM | SK-MEL-5 22.4 µM | PC-3 23.4 µM | IGROV-1 > 100 µM | K562 42.8 µM | EKVX 7.1 µM | M14 > 100 µM | SR 60.3 µM | BT-549 33 µM | RPMI-8226 35.2 µM | MDA-N 48.8 µM | U-251 86.9 µM | Hs-578T 81.7 µM | HT-29 62.2 µM | CCRF-CEM 88.9 µM | MDA-MB-435 50.1 µM | SK-MEL-2 64 µM | ACHN 34.8 µM | MDA-MB-231 > 100 µM

CCOP(=O)(OCC)C(C)(CC)NC1=NC(C(F)(F)F)(C(F)(F)F)NC(=O)N1 (stereo not drawn)
inactive: NCI-H23 > 100 µM | SK-MEL-5 > 100 µM | PC-3 > 100 µM | IGROV-1 70.1 µM | K562 > 100 µM | EKVX > 100 µM | M14 > 100 µM | SR > 100 µM | BT-549 > 100 µM | RPMI-8226 > 100 µM | MDA-N > 100 µM | U-251 > 100 µM | Hs-578T 29.8 µM | HT-29 > 100 µM | CCRF-CEM > 100 µM | MDA-MB-435 > 100 µM | SK-MEL-2 > 100 µM | ACHN > 100 µM | MDA-MB-231 > 100 µM
